In patent US8519136B2, “Aminopyridine derivatives having aurora a selective inhibitory action” (MSD K.K., priority 2008, dated 2013):
Structures can show the parent of a compound that is named as a salt.

Key:
[1] = biological target: T1, His-tagged human Aurora A (Homo sapiens, UniProt O14965); experiment: Aurora A inhibitory activity (IMAP fluorescence polarization); format: biochemical; details: 20 μM ATP, 30° C., 120 minutes
T1 construct: His (N); made in house; host or cells: Escherichia coli BL21-CodonPlus(DE3)-RIL
T1 sequence (O14965 1-403): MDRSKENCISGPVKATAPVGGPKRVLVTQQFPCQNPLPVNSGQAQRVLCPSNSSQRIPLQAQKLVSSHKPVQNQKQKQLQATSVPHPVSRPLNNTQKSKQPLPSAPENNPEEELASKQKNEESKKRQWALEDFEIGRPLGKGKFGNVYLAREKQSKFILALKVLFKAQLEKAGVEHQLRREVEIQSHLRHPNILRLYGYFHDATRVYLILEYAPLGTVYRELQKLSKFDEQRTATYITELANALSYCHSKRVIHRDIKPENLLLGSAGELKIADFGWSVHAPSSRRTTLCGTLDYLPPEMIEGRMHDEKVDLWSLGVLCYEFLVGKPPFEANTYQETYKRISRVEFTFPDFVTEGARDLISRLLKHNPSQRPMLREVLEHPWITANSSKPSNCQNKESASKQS
Excerpt: cDNA of N-terminal His-tagged human Aurora A was integrated into an expression vector, which was then highly expressed in Escherichia coli BL21-CodonPlus(DE3)-RIL cells. The Escherichia coli was harvested and lysed, and then the His-tagged human Aurora A protein was applied onto a nickel chelate column and eluted from the column with imidazole. The active fractions were desalted with a desalting column to give a purified enzyme.
For measurement of the activity of Aurora A, the substrate used was a synthetic peptide (5-FAM (5-carboxyfluorescein)-γ-aminobutyric acid-Ala-Leu-Arg-Arg-Ala-Ser-Leu-Gly-NH2) (SEQ.ID.NO.: 1), which was purchased from Toray Research Center, Inc.
For the phosphorylation reaction, the method by Upstate, Inc. [Kinase Profiler™ Assay Protocols] was referred to, and phosphorylation of the substrate was detected using IMAP® technology (Molecular Devices, Co. Ltd.) (Gaudet E W. et. al, J. Biomol. Screen, 8, 164-175 (2003)). Concretely, the phosphorylation reaction and the detection were carried out as follows:
The phosphorylation reaction was conducted using 384 well plate, and the reaction volume was 10 μl/well. The reaction buffer is comprised of 50 mM Tris-chloride buffer (pH 7.4), 15 mM magnesium acetate, and 0.2 mM ethylenediamine-N,N,N′,N′-tetraacetic acid (EDTA). Thereto, the purified Aurora A protein, 100 nM of the peptide substrate, and 20 μM of adenosine 5′-triphosphate (ATP) were added, and then the reaction was carried out at 30° C. for 120 minutes.
Thereafter, in order to terminate and detect the reaction, 30 μl of the IMAP (registered trademark) binding reagent (IMAP Progressive Binding Reagent, R7284) that had been diluted (1:400) in the 1×IMAP binding buffer A (IMAP Progressive Binding Buffer A, 5× stock, R7282) was added to each well. The solution stood still for 60 minutes in the dark, and then fluorescence polarization was measured using a high-end microplate reader (excitation wavelength: 485 nm; emission wavelength: 520 nm).
(§1) The compound to be tested was added to the reaction system such that a dilution series of the compound in dimethylsulfoxide (DMSO) was prepared, and then 0.5 μL of this solution was added for the testing to each well. Each control well was provided by adding 0.5 μL of DMSO to the well in place of the DMSO solution containing the compound to be tested.

[2] = biological target: T2, GST-tagged human Aurora B(AurB)/His-tagged human INCENP complex proteins (Homo sapiens, UniProt Q96GD4); experiment: Aurora B inhibitory activity (Method A, IMAP kit); format: biochemical; details: 40 μM ATP, 25° C., 45 minutes
T2 construct: GST; purchased Carna Biosciences, Inc
Description: An assay development kit for IMAP (registered trademark) (Aurora B), purchased from Carna Biosciences, Inc., was used for phosphorylation reaction, and the phosphorylation of a substrate was detected using the IMAP technology. The assay development kit used is comprised of an assay buffer, GST-tagged human Aurora B(AurB)/His-tagged human INCENP complex proteins (amino acid sequence: 803-916, AAU04398.1), and an ATP/substrate solution. Using the same, the phosphorylation reaction was conducted in accordance with a partially revised protocol attached to the kit, and then the phosphorylation of the substrate was detected using the IMAP technology.
For the phosphorylation reaction, 384 well plate was used, and the reaction volume was 10 μl/well. The composition of the reaction buffer (assay buffer) is comprised of 20 mM of HEPES buffer (pH 7.4), 0.01% Tween-20, and 2 mM of dithiothreitol (DTT). Thereto, AurB/INCENP complex protein, 100 nM of the substrate, and 40 μM of ATP, and 1 mM of magnesium salt were added, and then the reaction was conducted at 25° C. for 45 minutes. Thereafter, in order to terminate and detect the reaction, 30 μl of the IMAP (registered trademark) binding reagent (IMAP Progressive Binding Reagent, R7284) that had been diluted (1:400) in the 1×IMAP binding buffer A (IMAP Progressive Binding Buffer A, 5× stock, R7282) was added to each well. The solution stood still for 60 minutes in the dark, and then fluorescence polarization was measured using a high-end microplate reader (excitation wavelength: 485 nm; emission wavelength: 520 nm).
as §1, with “DMSO” for “dimethylsulfoxide (DMSO)”

[3] = test system: Human cervical cancer cells (HeLa S3); experiment: Cell growth inhibitory effect, WST-8 method; format: cell-based; details: 72 h, HeLa S3, three days incubation, read-out: Cell growth inhibitory effect (HeLaS3) (IC50)
Description: Fetal calf serum (FCS) was purchased from Moregate Biotech, and DMEM medium was purchased from Invitrogen Corp. WST-8 was purchased from Kishida Chemical Co., Ltd.
(§2) Human cervical cancer cells (HeLa S3) were obtained from the American Type Culture Collection (ATCC).
Cells were suspended in a DMEM medium containing 10% FCS, and the cell suspension was dispensed to a 96-well plastic plate at a rate of 750 cells/100 microliters per well. The plate was incubated overnight in 5% CO2-95% air at 37° C. A drug was subjected to graded dilution in dimethylsulfoxide and further diluted with a DMEM medium containing 10% FCS. Then, the dilution was dispensed to the plate on which cells had been disseminated, at a rate of 100 microliters per well. The plate was incubated for further three days in 5% CO2-95% air at 37° C. Cell growth after incubation was measured by the WST-8 method (H. Tominaga, et al., Anal. Commun., 36, 47-50 (1999)). Here, the WST-8 method refers to a method in which 20 microliters of a WST-8 reagent solution is added to each well, incubation is conducted at 37° C. for 60 minutes, the plate is stirred, and the amount of formazan produced is measured by a colorimetric method to determine the inhibitory rate of the drug. The concentration for 50% growth inhibition (IC50, μM) of the compound was determined.

[4] = test system: Human cervical cancer cells (HeLa S3); experiment: Effect by combined use of drugs in cells (with docetaxel), WST-8 method; format: cell-based; details: HeLa S3, three days; for inhibition at 0.03 µM: compound 30 nM alone
Description: Fetal calf serum (FCS) was purchased from Moregate Biotech, DMEM medium from Invitrogen Corp., docetaxel (tradename: Taxere) from Sigma-Aldrich, Inc., and WST-8 from Kishida Chemical Co., Ltd.
as §2
Cells were suspended in a DMEM medium containing 10% FCS, and the cell suspension was dispensed to two 96-well plastic plates at a rate of 750 cells/100 microliters per well. The plates were incubated overnight in 5% CO2-95% air at 37° C. A drug was subjected to graded dilution in dimethylsulfoxide and further diluted with DMSO or with a DMEM medium containing 10% FCS and also containing 0.6 nM docetaxel. Then, the dilutions were each dispensed to one of the plates on which cells had been disseminated, at a rate of 100 microliters per well. The final concentration of docetaxel at this stage was 0.3 nM. Also, the concentrations in the case of sole administration of the compound according to the invention were 0.003, 0.01, 0.03, 0.1, 0.3, 1, 3 and 10 μM. The plates were incubated for further three days in 5% CO2-95% air at 37° C. Cell growth after incubation was measured by the WST-8 method (H. Tominaga, et al., Anal. Commun., 36, 47-50 (1999)). Here, the WST-8 method refers to a method in which 20 microliters of a WST-8 reagent solution is added to each well, incubation is conducted at 37° C. for 60 minutes, the plate is stirred, and the amount of formazan produced is measured by a colorimetric method to determine the inhibitory rate of the drug. The growth inhibitory effects of docetaxel and of the compound according to the invention were determined, with the value obtained in sole treatment of DMSO being defined as 0%.

[5] = Homo sapiens, HeLa S3, 72 h, read-out: Cell growth inhibitory effect by sole administration of the compound of Example (%)
[6] = compound 30 nM + docetaxel 0.3 nM

T2 sequence (Q96GD4 whole entry): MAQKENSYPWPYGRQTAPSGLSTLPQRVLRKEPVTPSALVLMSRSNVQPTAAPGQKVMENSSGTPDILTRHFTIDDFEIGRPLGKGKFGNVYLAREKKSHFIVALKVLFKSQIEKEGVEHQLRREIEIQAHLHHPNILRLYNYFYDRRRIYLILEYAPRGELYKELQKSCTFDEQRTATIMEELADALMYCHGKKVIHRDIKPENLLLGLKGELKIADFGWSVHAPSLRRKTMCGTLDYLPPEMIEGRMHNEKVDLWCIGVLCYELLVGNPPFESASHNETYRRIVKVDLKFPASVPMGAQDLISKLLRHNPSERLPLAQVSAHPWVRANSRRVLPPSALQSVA
T2 sequence (Q9NQS7 803-916 partner limits assumed): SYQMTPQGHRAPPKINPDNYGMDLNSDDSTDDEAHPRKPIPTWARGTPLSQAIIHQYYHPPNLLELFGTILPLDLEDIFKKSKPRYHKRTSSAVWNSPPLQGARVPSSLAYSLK

Row | SMILES | IC50 [1] [nM] | IC50 [2] [nM] | IC50 [3] [nM] | inhibition at 0.03 µM [4, 5] [%] | Cell growth inhibitory effect by combined administration of docetaxel and the compound of Example (%) [4, 6] [%] | inhibition at 0.01 µM ([4]; Homo sapiens, HeLa S3, 72 h, compound 10 nM alone, read-out: Cell growth inhibitory effect by sole administration of the compound of Example (%)) [%] | Cell growth inhibitory effect by combined administration of docetaxel and the compound of Example (%) ([4]; compound 10 nM + docetaxel 0.3 nM) | inhibition at 0.0003 µM ([4]; Homo sapiens, HeLa S3, 72 h, docetaxel 0.3 nM alone, DMSO = 0%, read-out: Cell growth inhibitory effect by sole administration of docetaxel (0.3 nM) (%)) [%] | Cell growth inhibitory effect by sole administration of docetaxel (0.3 nM) (%) ([4]; docetaxel 0.3 nM alone, DMSO = 0%)
1 | O=C(c1cccc(C(F)(F)F)c1F)N1CCC(Cc2cccc(Nc3cc[nH]n3)n2)(c2n[nH]c(=O)o2)CC1 [Example 9, 5-(1-(2-fluoro-3-(trifluoromethyl)benzoyl)-4-((6-(1H-pyrazol-3-ylamino)pyridin-2-yl)methyl)piperidin-4-yl)-1,3,4-oxadiazol-2(3H)-one] | 0.25 | 35.8 | 220 | 20.3 | 90.9 | – | – | – | –
2 | O=C(c1cccc(Cl)c1F)N1CCC(Cc2cccc(Nc3cc[nH]n3)n2)(c2n[nH]c(=O)o2)CC1 [Example 10, 5-(1-(3-chloro-2-fluorobenzoyl)-4-((6-(1H-pyrazol-3-ylamino)pyridin-2-yl)methyl)piperidin-4-yl)-1,3,4-oxadiazol-2(3H)-one trifluoroacetate] | 0.27 | 166 | 280 | 3.3 | 84.8 | – | – | – | –
3 | O=C(c1cccc(Cl)c1F)N1CCC(Cc2cc(-c3ccccc3)cc(Nc3cc[nH]n3)n2)(c2n[nH]c(=O)o2)CC1 [Example 17, 5-(1-(3-chloro-2-fluorobenzoyl)-4-((4-phenyl-6-(1H-pyrazol-3-ylamino)pyridin-2-yl)methyl)piperidin-4-yl)-1,3,4-oxadiazol-2(3H)-one] | 0.3 | 381 | 100 | – | – | 4.2 | 80.8 | – | –
4 | CC(=O)O[C@@]12CO[C@@H]1C[C@H](O)[C@@]1(C)C(=O)[C@H](O)C3=C(C)[C@@H](OC(=O)[C@H](O)[C@@H](NC(=O)OC(C)(C)C)c4ccccc4)C[C@@](O)([C@@H](OC(=O)c4ccccc4)[C@H]21)C3(C)C [docetaxel, reference compound] | – | – | – | – | – | – | – | 49.6 | 51.6
